According to paper PMC6458997, “Deciphering the Molecular Mechanism Underpinning Phage Arbitrium Communication Systems” (Molecular Cell, 2019):
“Also recorded” adds a separate entry of the source. Like-named read-outs stand apart in the source and are kept apart here.

How the values were obtained:
SPbeta AimR N202A = assay: Thermal shift assay, mutant AimR N202A; format: binding, Bacillus subtilis SPbeta phage; conditions: residual stabilization versus WT
Protocol: (§1) The thermal shift assay was conducted in a 7500 Fast Real time PCR System (Applied Biosystems). Samples of 20 μL containing 5 × Sypro Orange (Sigma-Aldrich) and 20 μM of protein in a 20 mM Tris pH 8 and 250 mM NaCl buffer were loaded in 96-well PCR plates. To calculate the apparent Kd peptide concentrations from 0 to 2 μM were added to the mixture. Samples were heated from 20 to 85°C in steps of one degree. Fluorescent intensity was plotted versus temperature and integrated with GraphPad Prism software using a Boltzmann model to calculate melting temperatures.

SPbeta AimR [1] = target: T1, SPbeta AimR (Bacillus phage SPbeta, UniProt O64094); format: binding, Bacillus subtilis SPbeta phage; conditions: WT SPbeta AimR, 20 μM protein, 20 mM Tris pH 8, 250 mM NaCl
T1 construct: expresses the full-length AimR (residues 1-386) with an N-terminal 6xHistag; 6xHis tag followed by TEV protease site (N, cleaved yes); made in house; host or cells: E. coli BL21 (DE3) RIL
Protocol: as §1

[2] = tested on: SPbeta AimR bound to its operator; format: biochemical, Bacillus subtilis SPbeta phage
Description: (§2) Gels were stained with RedSafe (Intron Biotechnology).

[3] = tested on: SPbeta AimR bound to putative SPbeta operators; format: biochemical, Bacillus subtilis SPbeta phage; conditions: pH 7.5
Description: as §2

[4] = tested on: AimR N202A bound to the AimR operator; assay: EMSA, AimP-induced DNA dissociation of mutant AimR N202A; format: biochemical, Bacillus subtilis SPbeta phage; conditions: AimR 4 μM, probe 0.4 μM, HEPES pH 7.5, 10 min at room temperature
Description: as §2

SPbeta AimR [5] = target: T1, SPbeta AimR; assay: SEC-MALS, effect of AimP on AimR oligomeric state; format: biochemical, Bacillus subtilis SPbeta phage; conditions: 1 mM peptide in injected sample, 1 μM in running buffer; protein 5 mg/mL; 25 mM Tris pH 8, 250 mM NaCl
Protocol: SEC-MALS experiments were performed using an AKTA pure system (GE Heralthcare) coupled to a Wyatt DAWN HELEOS-II MALS instrument and a Wyatt Optilab rEX differential refractometer (Wyatt). 50 μL of the protein samples were injected at a concentration of 5 mg/mL on a Superdex 200 HR 10/300 (GE Heralthcare) column equilibrated in 25 mM Tris pH 8, 250 mM NaCl. When the effect of the peptide in the oligomeric state was tested, 1 mM peptide was added to the injected sample and the running buffer was supplemented with peptide at a final concentration of 1 μM. The Astra 7.1.2 software from the manufacturer was used for acquisition and analysis of the data.

[6] = tested on: SPbeta AimR and operators presenting spacers from 12 bp to 35 bp; conditions: pH 7.5
Protocol: AimR binding to its operator and the inhibition induced by the arbitrium peptides were analyzed by native polyacrylamide and agarose gel electrophoresis. […] Double strand DNA primer probes were purchased from Macrogen (Table S1 and Figure 3A). Purified PCR product or purchased probes (0.4μM) and AimR (4μM) protein were mixed in EMSA buffer (50 mM HEPES pH 7.5, 5 mM MgCl2, 75 mM NaCl and 0.5 mM EDTA). The samples were incubated for 10 min at room temperature. 8% polyacrylamide gels were electrophoresed in Tris-Borate-EDTA (TBE) buffer at 100V for one hour, followed by loading of the samples. Electrophoresis was then performed in TBE buffer at 4°C for about 150 min at 100V. Agarose gels (0.8%–1.2%) were run in TAE buffer at room temperature for about 100 min at 80V. Gels were stained with RedSafe (Intron Biotechnology).

SPbeta AimR D360A = assay: Thermal shift assay, mutant AimR D360A; format: binding, Bacillus subtilis SPbeta phage; conditions: residual stabilization versus WT
Protocol: as §1

T1 sequence (O64094 whole entry, the tested form may be a part): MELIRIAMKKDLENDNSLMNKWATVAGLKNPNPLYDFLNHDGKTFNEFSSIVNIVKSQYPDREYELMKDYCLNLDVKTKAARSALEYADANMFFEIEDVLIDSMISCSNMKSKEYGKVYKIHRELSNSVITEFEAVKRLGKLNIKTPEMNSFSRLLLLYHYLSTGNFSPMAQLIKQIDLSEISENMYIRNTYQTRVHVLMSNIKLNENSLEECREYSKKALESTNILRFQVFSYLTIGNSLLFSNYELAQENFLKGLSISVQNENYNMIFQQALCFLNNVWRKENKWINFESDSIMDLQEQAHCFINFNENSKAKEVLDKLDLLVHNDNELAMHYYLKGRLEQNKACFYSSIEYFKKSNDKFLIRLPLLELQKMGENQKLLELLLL

Row | Substance | stabilization induced by AimP, AimR N202A (SPbeta AimR N202A) [°] | increment in the Tm (in words) (SPbeta AimR [1]) | melting temperature (Tm) of AimR in presence of peptide (SPbeta AimR [1]; 5 × Sypro Orange, 20 to 85°C in steps of one degree, one of three independent experiments) [°C] | effect of peptide on AimR-DNA binding ([2]; pH 7.5) | DNA release from putative SPbeta operators [3] | effect of AimP on DNA dissociation of AimR^N202A [4] | effect of AimP on AimR dimer (SPbeta AimR [5]) | DNA binding of AimR-AimP complex [6] | stabilization induced by AimP, AimR D360A (SPbeta AimR D360A) [°] | effect of peptide on AimR-DNA binding ([2]; SPbeta AimR 4 μM, DNA probe 0.4 μM, 50 mM HEPES pH 7.5, 5 mM MgCl2, 75 mM NaCl, 0.5 mM EDTA, 10 min at room temperature)
1 | GMPRGA [regulatory arbitrium AimP peptide for SPbeta AimR, hexapeptide, 95% purity, ProteoGenix] | 1 | strong stabilization of SPbeta AimR | 58.4 | induced the release of AimR from DNA; also recorded: specifically disrupts the SPbeta AimR binding to its operator | induces DNA release | did not induce DNA dissociation | did not induce SPbeta AimR dimer dissociation | unable to bind DNA | 1 | 
2 | SAIRGA [AimP peptide specific for phi3T phage, negative control for SPbeta AimR, reference compound] |  | No increment in the Tm |  |  |  |  |  |  |  | had no effect
